Columns and labels:
Jurkat cells = test: Transfection of Jurkat cells with pCMVCAT DNA, CAT activity of cell lysates; format: cell-based
Procedure: (§1) All cell lines were obtained from American Type Culture Collection (Rockville, Md.). Standard tissue culture methods were employed. Chinese hamster ovary (CHO-K1) cells were cultured in EMEM (GIBCO BRL) containing 2 mM proline and 5% (v/v) fetal bovine serum (FBS). NIH 3T3 cells were cultured in Dulbecco's-modified Eagle's medium (DMEM) containing 10% (v/v) calf serum (CS). Jurkat cells were cultured in RPMI 1640 (GIBCO BRL) containing 10% (v/v) FBS. Human fibroblasts were isolated from neonatal foreskin tissue and prepared as follows. Rinsed, fresh tissue was exposed to 25 units/ml dispase (Collaborative Research, Bedford, Mass.) overnight at 4° C., separated into epidermis and dermis, and the minced dermis was digested 10 min at 37° C. in 0.25% (v/v) trypsin, 1 mM EDTA. The reaction was stopped by a rinse and centrifugation in DMEM with 10% (v/v) FBS, in which the cells were also cultured. All cultures were incubated at 37° C., 5% CO2. Media for all cultures routinely included 100 units/ml penicillin and 100 μg/ml streptomycin.
For transfection of Jurkat cells in suspension, lipid and DNA (pCMVCAT) were diluted separately into 500 μl aliquots of Opti-MEM I Reduced Serum Medium (GIBCO BRL; serum-free). These aliquots were gently mixed and incubated at room temperature for 15-45 minutes to form lipid-DNA complexes. […]

NIH-3T3 cells = test: Transfection of NIH-3T3 cells with pCMV β-gal DNA, in situ β-galactosidase staining; format: cell-based
Procedure: as §1, with “streptomycin. […]” for “streptomycin.”
(§2) Cell lysates were assayed for β-galactosidase activity as described by Sanes et al. (1986) EMBO J. 5:3133. […] Transfection efficiency is evaluated by counting or estimating the number of β-gal positive cells (blue-stained cells). […]

[1] = test system: primary human fibroblasts; test: Transfection of primary human fibroblasts with pCMV β-gal DNA, in situ β-galactosidase staining; format: cell-based
Procedure: All cell lines were obtained from American Type Culture Collection (Rockville, Md.). Standard tissue culture methods were employed. […] Human fibroblasts were isolated from neonatal foreskin tissue and prepared as follows. Rinsed, fresh tissue was exposed to 25 units/ml dispase (Collaborative Research, Bedford, Mass.) overnight at 4° C., separated into epidermis and dermis, and the minced dermis was digested 10 min at 37° C. in 0.25% (v/v) trypsin, 1 mM EDTA. The reaction was stopped by a rinse and centrifugation in DMEM with 10% (v/v) FBS, in which the cells were also cultured. All cultures were incubated at 37° C., 5% CO2. Media for all cultures routinely included 100 units/ml penicillin and 100 μg/ml streptomycin.
For transfection of CHO-K1, NIH-3T3, and human fibroblast cells in 24-well plates, lipid and DNA (PCMV β-gal) were diluted separately into 25 μl aliquots of Opti-MEM I Reduced Serum Medium (GIBCO BRL; serum-free). […]
Cells were rinsed with PBS, fixed for 5 minutes in 2% (v/v) formaldehyde, 0.2% glutaraldehyde in PBS, rinsed twice with PBS, and stained 2 hr to overnight with 0.1% β-gal, 5 mM potassium ferrocyanide, 5 mM potassium ferrocyanide, 2 mM MgCl2 in PBS. […] Transfection efficiency is evaluated by counting or estimating the number of β-gal positive cells (blue-stained cells). […]

CHO-K1 cells = test: Transfection of CHO-K1 cells with pCMV β-gal DNA, in situ β-galactosidase staining; format: cell-based, Chinese hamster; details: CHO-K1 cells (Table 3)
Procedure: as §1, with “streptomycin. […]” for “streptomycin.”
as §2

N,N,N′,N′-tetramethyltetrapalmyl-sperminetetrammonium iodide [Compound 3]
effectiveness for DNA transfection (Jurkat cells; Jurkat cells (Table 4)): highly effective
transfection efficiency relative to DOSPA (Jurkat cells; Jurkat cells, lower concentration of lipid required for optimal activity): comparable to DOSPA
effectiveness for DNA transfection (NIH-3T3 cells; NIH-3T3 cells (Table 2)): highly effective
transfection effectiveness relative to DOSPA (NIH-3T3 cells; NIH-3T3 cells, low amounts of DNA): approximately 10 fold
transfection efficiency relative to DOSPA ([1]; human fibroblasts, lower concentration of lipid required for optimal activity): comparable to DOSPA
effectiveness for DNA transfection ([1]; primary human fibroblast cells (Table 1)): highly effective
effectiveness for DNA transfection (CHO-K1 cells): highly effective

Reference: patent US7501542B2, “Highly-packed polycationic ammonium, sulfonium and phosphonium lipids” (Invitrogen Corporation, priority 1993, dated 2009)
